As usually defined, the melting point is the temperature of the solid-liquid transition.

`CS(=O)(=O)c1ccc(-n2cnc(Cl)c2-c2ccc(OC(F)(F)F)cc2)cc1`: the melting point was in the range of 136 to 138 °C.
The value for `COC(=O)C(Oc1ccc(C(F)(F)F)cc1)c1ccc(OCCCOc2ccc(Cl)cc2)cc1` (centres undefined) was 83 to 84 °C; that for `Cc1ccc(-c2cc(NCc3cccc(CNc4cc(-c5ccc(C)cc5)[nH]n4)n3)n[nH]2)cc1` was 154 °C; that for `COc1ccc(CN2C(=O)C3(COc4cc(F)c(C#N)cc43)c3ccccc32)cc1` (centres undefined) was 142 to 143 °C.
As for `C=CCNc1nc(NCC=C)nc(N2CCNCC2)n1`, the melting point was 93 to 94.5 °C.
Turning to `N#Cc1cccc(NC(=O)NCc2cccc3c2C(=O)N(C2CCC(=O)NC2=O)C3=O)c1` (centres undefined), the melting point lay in the range of 228 to 230 °C.
The value for `CCOCc1nc2c(N)nc3ccccc3c2n1CC(C)(O)CC` (centres undefined) was 189 to 191 °C.
The value for `Cc1cc(I)cc(C)c1Oc1ccc([N+](=O)[O-])c(Nc2ccc(C#N)cc2)n1` was 162 to 165 °C.
`Cc1ccc(C(=O)O)c(C2=NC(=O)C(C)(C(C)C)N2)n1` (centres undefined) registered a melting point of 139 to 142 °C.
Compound `COc1ccc(F)cc1Oc1c(Cl)ncnc1NS(=O)(=O)c1ccc(Cl)cc1` registered a melting point of 169 to 171 °C.
In the case of `CON=CNC(=O)c1ccc(C2=NOC(c3cc(Cl)cc(Cl)c3)(C(F)(F)F)C2)cc1C` (centres undefined), the melting point lay within 167 to 169 °C.
The value for `Oc1c(Cc2ccccc2)nc(Cc2ccccc2)c2c1COC2` was 204 to 205 °C; that for `CC(=O)Nc1cccc(C(=O)N2CCN(CCc3ccc(Cl)cc3)CC2)c1` was 101 to 107 °C.
The value for `CC(C)(C)OC(=O)N1CCN(CC(O)COc2ccc(CC#N)cc2)CC1` (centres undefined) was 98 to 100 °C.
For `O=C(O)C(Oc1ccc(F)cc1)c1ccc(Oc2ccc(Cl)cc2)cc1` (centres undefined), the melting point was 106 to 111 °C.
The result for `CCCCOC(=O)COc1ccc(C(=O)Nc2ccccc2Sc2cccc(C)c2-c2nnn[nH]2)cc1` reads 150 to 151 °C.
The value for `CC(C)(C)C(Nc1c(Nc2cccnc2)c(=O)c1=O)C(Oc1ccccc1)C(N)=O` (centres undefined) was 227 to 228 °C; that for `O=C1Cc2c(Cl)cccc2Sc2ccccc21` was 122 to 125 °C.
The value for `CCCCOCCOc1ccc(-c2ccc(N3CCCC3)c(C(C)=CC(=O)OCC)c2)cc1` was 81 to 82 °C; that for `O=C1c2c(c(=O)n3nc(-c4ccccc4)cc3n2Cc2ccccc2)CN1C1CCCCC1` was 276 to 278 °C.
As for `CCc1cc(C(=O)O)c(OC(C)=O)cc1C`, the melting point lay within 132 to 134 °C.
In the case of `Cc1cc(C)cc(Nc2nccc(-c3nc4ccccc4s3)n2)c1`, the melting point lay within 217 to 219 °C.
Take `Cc1cc(C(=O)CCCC(=O)c2cc(C)c(O)c(C(C)(C)C)c2)cc(C(C)(C)C)c1O`: the melting point was in the range of 156 to 158 °C.
`COc1cc(-c2ccc(C)cc2)c(C(C)=NOCc2ccc([N+](=O)[O-])cc2)cc1O` registered a melting point of 106 to 109 °C.
Compound `Cc1cc2c(=O)n(CCN3CCC(Nc4nc5ccccc5n4Cc4ccc(F)cc4)CC3)c(=O)[nH]c2s1` gave a melting point of 188 °C.
The result for `Cc1nc(-n2cccc(C(F)(F)F)c2=O)sc1C(=O)NCc1ccccc1` reads 203 to 204 °C; that for `C=CC[C@H](C(N)=O)[C@@H](CC(C)C)C(=O)NC1N=C(N2CCCCC2)c2ccccc2N(C)C1=O` (some centres undefined), 231 to 238 °C.
The value for `CCOC(=O)C=C(C)c1ccc(-c2ccc(F)cc2F)cc1` was 54 to 56 °C.
With `O=C(c1cccc(Nc2nc(-c3ccccc3)nc3ccccc23)c1)N1CCN(c2ncc(Cc3ccccc3)cn2)CC1`, the melting point was in the range of 214 to 215 °C.
The value for `COC(=O)CN(C)C(=S)c1cccc2c(Br)cccc12` was 85 to 86 °C; that for `NC(=O)c1nnn(C2OC(CO)C(O)C2O)c1N` (centres undefined) was 159 to 161 °C; that for `CC1(C)CC(c2ccccn2)c2ccccc2O1` (centres undefined) was 99 to 101 °C.
`O=C(O)c1ccc(CCOc2c(F)ccc3nc(C(=O)NCc4cccc(OCCOc5nc[nH]n5)c4)[nH]c(=O)c23)cc1`: the melting point fell in the range of 122 to 124 °C.
`NC(=O)c1cccc(-c2cc(OC(=O)NC3CCCCC3)ccc2O)c1` came in with a melting point of 128 to 130 °C.
Turning to `O=C(O)C1(c2cn3nc(NCCCN4CCC(OC(c5ccccc5)c5ccccc5)CC4)ccc3n2)CC1`, the melting point lay in the range of 115 to 117 °C.
The compound `NC(=O)C1CCc2sc3ccc(F)cc3c2C1` (centres undefined) displayed a melting point of 201 to 202 °C.
The value for `CC(C)Oc1cc(Oc2ccc(S(C)(=O)=O)cn2)cc2cc(C3=NCC(CC(C)(C)O)S3)[nH]c12` (centres undefined) was 151 to 153 °C.
`Cc1n[nH]c(=O)c(-c2c(F)cc(F)cc2F)c1-c1cccs1` gave a melting point of 249 to 251 °C.
Regarding `O=C(Nc1ccncc1)c1c(OCC2CC2)ccc2oc3ccccc3c12`, the melting point was 243 to 244 °C.
The result for `CC(C)(C)c1csc(NC(=O)c2ccn3c(=O)c(/C=C/C(=O)O)c(N4CCCC(CC(=O)NCCO)C4)nc3c2)n1` (centres undefined) reads 167 to 175 °C; that for `CC(C)(C)CC(C)(C)c1cc(-n2nc3ccc(-c4cccnc4)cc3n2)c(O)c(C(C)(C)c2ccccc2)c1`, 126 to 128 °C; that for `Cc1ccc(CNc2cccc(C(=O)O)c2C(=O)O)o1`, 305 to 307 °C.
The value for `CC(C)OC(=O)NC(C(=O)N1CCCC1C(=O)O)C(C)(C)SC(C)C` (centres undefined) was 128 to 130 °C; that for `Cc1nn(-c2ccc(F)cc2)cc1C(=O)O` was 194 to 195 °C; that for `O=C(NCc1ccccc1)C1Cc2ccccc2N1S(=O)(=O)c1ccc(-c2ccc(F)cc2)cc1` (centres undefined) was 65 °C.
The value for `CCc1ccc2c(c1)C=Cc1oc(C)nc1C2c1cn(Cc2cccc(C(=O)Nc3n[nH]c(C(F)(F)F)n3)c2)c(=O)[nH]c1=S` (centres undefined) was 142 to 145 °C; that for `O=C1CCN(Cc2ccccc2)C(=O)C1=C1SC=CS1` was 122 to 124 °C.
With `CCOC(=O)Cn1c(-c2ccc(F)cc2)nc2cccnc21`, the melting point was 126 to 128 °C.
`CCCC(=O)NCc1cccc2c1C(=O)N(C1CCC(=O)NC1=O)C2=O` (centres undefined) returned a melting point of 121 to 123 °C.
The value for `COc1ccc(N2CCN(CCCCc3ccc(C4CCC(=O)N4)cc3)CC2)cc1` (centres undefined) was 155 to 156 °C.
The value for `CCOC(=O)C(CC)C(=O)Nc1cc(Cl)cc(Cl)c1` (centres undefined) was 96.5 to 98 °C; that for `COc1nc(CO)c(CO)n1C` was 110 to 119 °C.
In turn, `S=C(NCc1cccc2ccccc12)N1CCc2c([nH]c3ccccc23)C1c1ccc2c(c1)OCO2` (centres undefined) returned a melting point of 111 to 113 °C.
The result for `CCCCN(CCCC)Cc1cc(NC(=O)Nc2c(C(C)C)cccc2C(C)C)n(Cc2ccccc2)n1` reads 149 to 152 °C.
`COCCn1nc(-c2sc(C(=O)NC(C)C)nc2-c2ccccc2)ccc1=O`: the melting point was found to be 172 °C.
The value for `C=CCOc1ccc(C=Cc2ccc([N+](=O)[O-])cc2)cc1` was 114 °C.
Turning to `COc1cc(Nc2nccc(C(=O)c3ccccc3)n2)cc(OC)c1OC`, the melting point amounted to 165 °C.
The result for `COCCc1sc(C(O)(c2nc(C)c(CCOC)s2)C(F)(F)F)nc1C` reads 68 to 69 °C; that for `CCCN1CCC(n2nc(-c3c(-c4ccccc4)nn4ccccc34)ccc2=O)CC1`, 104 to 106 °C.

(Values after a melting point compilation (Tetko et al.; mined from patent text by program, amines drawn as free bases though some values may be those of a salt).)
